Experimental data: patent publication US8455510B2
Like-named read-outs stand apart in the source and are kept apart here. One block for each compound: values may come before it.

Assays:
FKBP-12 protein = molecular target: T1, FKBP-12 protein (Homo sapiens, UniProt P62942); assay: SPR (surface plasma resonance) binding with FKBP-12
T1 construct: purchased sigma Co
Method: (1) FKBP-12 protein was purchased from sigma Co.
(2) HBS-EP buffer solution (10 mM Hepes, 150 mM NaCl, 3.4 mM EDTA, 0.005% (v/v) surfactant P20, pH 7.4)
(3) Activating reagents EDC and NHS, and blocking reagents Ethanolamine, etc., were purchased from BIACORE AB Co. (Uppsala, Sweden).
(4) BIAcore 3000 and CM5 chip were purchased from BIACORE AB Co. (Uppsala, Sweden).
(2) […] was coupled to the FC2 channel on CM5 chip by using the Wizard for amino-coupling in Biacore 3000 controlling soft. 3.3 g/L of FKBP-12 protein was diluted with 10 mM NaAC (pH 4.6) to 66 μg/ml. The surface of the chip was washed by injecting a mixture of 0.1M1-(3-dimethylaminopropyl)-3-ethylcarbodiimide hydrochloride (EDCI) and 0.1M N-hydroxysuccinimide (NHS) (1:1) at a flow rate of 20 μL/min for 7 min. After that, the protein solution was injected, and then a 1M cholamine (pH 8.5) solution was fed for 7 min to block the activated surface of the chip. Preliminary screening and pharmacokinetic tests on the compounds
The binding abilities of small molecular compounds with FKBP-12 protein were evaluated by SPR (surface plasma resonance). The stock solution of the compound was 10 mM, and was diluted by HBS-EP buffer solution at given ratios. Pharmacokinetic tests were carried out by the Wizard for kinetic analysis in Biacore 3000 controlling soft. The resulted data were fitted by 1:1 Langmuir binding model or stability model in Biacore 3000 analytical soft to obtain the exact kinetic and thermodynamic constants.

in vivo = format: in vivo; conditions: nude, mouse; for concentration at 0.5 h / concentration at 12 h / concentration at 48 h / concentration at 2 h / concentration at 5 h: CCI-779 (prototype) concentration; for Kp: read-out: AUCtissue/AUCplasma
[1] = test system: human osteosarcoma U2SO xenograft; assay: U2SO xenograft on nude mice; conditions: Table 5, oral 2.5 mg/kg, 1-5/3 w
[2] = test system: DNFB-induced delayed type hypersensitivity reaction; assay: DNFB-induced delayed type hypersensitivity reaction in mice; format: in vivo, BALB/c mice; conditions: 2 mg/kg/d, oral administration; model control 0.175 mm
Method: The delayed type hypersensitivity (DTH) reaction in mice was induced by DNFB to evaluate the inhibition effect of the compound on DTH in vivo. […] Preparation method: the compound was dissolved in anhydrous alcohol to prepare a stock solution (50 mg/ml), which was diluted to the desired concentration when use by using a solution of 5% PEG400, 5% Tween-80 in sterile water as a solvent. […] DNFB combined with dermal protein to form a complete antigen after sensitizing on feet of mice. One week later, mice were attacked by DNFB on ears to induce a local delayed allergic reaction, i.e., the delayed type hypersensitivity reaction to cause ear swelling, while the delayed type hypersensitivity reaction would not be observed on the ear which had not been attacked. Therefore, the ear swelling can reflect the level of the delayed type hypersensitivity reaction in mice induced by DNFB. (1) 20 μl of 0.5% DNFB solution in a mixture of acetone and olive oil (4:1) as a solvent was applied on both hind legs of mice for sensitization. […] (4) Thickness of the left and right ears of the mice was measured by a micrometer screw gauge, and the swelling was calculated by subtracting the thickness of the left ear from thickness of the right ear.

[3] = test system: human rhabdomyosarcoma RH-30 xenograft; assay: RH-30 xenograft on nude mice; conditions: Table 4, 5 mg/kg po, 1-5/2 w;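 also: male BALB/cA nude mice with subcutaneous RH-30 tumors, oral dosing versus solvent-fed controls, caliper tumor volume, RTV relative to grouping day, T/C as treated RTV over control RTV ×100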
Source text: Animals: BALB/cA nude mice, male, 40-45 days old, body weight: 21±2 g, provided by Shanghai Institute of Materia Medica, Chinese Academy of Sciences. License No.: SCXK (Shanghai) 2004-0002. Animal number in each group: 6 in negative control group, and 6 in administration group.
The amount of inoculated cells was 5×10^6. After the xenograft was formed by inoculation, it was used after passed for 3 generations in nude mice.

[4] = Immunosuppressive activity assay: cytotoxicity; format: cell-based
T Cells = assay: Immunosuppressive activity assay: T cells inhibitory activity; format: cell-based; conditions: T-cell; Table 10
[5] = in vivo, Blood Plasma, Mean Value

T1 sequence (P62942 whole entry, species assumed): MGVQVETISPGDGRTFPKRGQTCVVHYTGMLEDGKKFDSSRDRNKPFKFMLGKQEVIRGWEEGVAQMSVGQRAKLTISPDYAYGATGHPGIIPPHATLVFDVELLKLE

- binding with FKBP12 (FKBP-12 protein): concentration-dependently bind
- Kd (FKBP-12 protein; FKBP12): 0.00102 µM
- AUC0-t (ng · h/g or ng · h/ml) (in vivo; in vivo): 1098 ng·h/mL
- AUC(0-t) (in vivo; in vivo): 106 ng·h/mL
- Sirolimus concentration, Blood Plasma, Mean Value (in vivo; in vivo, 0.5 h): 123 ng/mL
- Sirolimus concentration, Liver, Mean Value (in vivo; in vivo, 0.5 h): 142 ng/g
- Sirolimus concentration, Tumor, Mean Value (in vivo; in vivo, 0.5 h): 9.03 ng/g
- Sirolimus concentration, Blood Plasma, Mean Value (in vivo; in vivo, 2 h): 143 ng/mL
- Sirolimus concentration, Liver, Mean Value (in vivo; in vivo, 2 h): 98.4 ng/g
- Sirolimus concentration, Tumor, Mean Value (in vivo; in vivo, 2 h): 36.3 ng/g
- Sirolimus concentration, Blood Plasma, Mean Value (in vivo; in vivo, 5 h): 58.2 ng/mL
- Sirolimus concentration, Liver, Mean Value (in vivo; in vivo, 5 h): 83.9 ng/g
- Sirolimus concentration, Tumor, Mean Value (in vivo; in vivo, 5 h): 30.3 ng/g
- Sirolimus concentration, Blood Plasma, Mean Value (in vivo; in vivo, 12 h): 14.2 ng/mL
- Sirolimus concentration, Liver, Mean Value (in vivo; in vivo, 12 h): 33.2 ng/g
- Sirolimus concentration, Tumor, Mean Value (in vivo; in vivo, 12 h): 19.1 ng/g
- Sirolimus concentration, Blood Plasma, Mean Value (in vivo; in vivo, 48 h): 3.08 ng/mL
- Sirolimus concentration, Liver, Mean Value (in vivo; in vivo, 48 h): 9.12 ng/g
- Sirolimus concentration, Tumor, Mean Value (in vivo; in vivo, 48 h): 16.7 ng/g
- concentration at 0.5 h (in vivo; in vivo, Blood Plasma): 20.5 ng/mL
- concentration at 12 h (in vivo; in vivo, Blood Plasma): 1.3 ng/mL
- concentration at 48 h (in vivo; in vivo, Blood Plasma): 0.16 ng/mL
- concentration at 0.5 h (in vivo; [5]): 30.9 ng/mL
- concentration at 2 h (in vivo; [5]): 11.7 ng/mL
- concentration at 5 h (in vivo; [5]): 3.67 ng/mL
- concentration at 12 h (in vivo; [5]): 1.27 ng/mL
- concentration at 48 h (in vivo; [5]): 0.164 ng/mL
- concentration at 0.5 h (in vivo; in vivo, Liver): 392 ng/g
- concentration at 2 h (in vivo; in vivo, Liver): 103 ng/g
- concentration at 5 h (in vivo; in vivo, Liver): 45.5 ng/g
- concentration at 0.5 h (in vivo; in vivo, Liver, Mean Value): 474 ng/g
- concentration at 2 h (in vivo; in vivo, Liver, Mean Value): 151 ng/g
- concentration at 5 h (in vivo; in vivo, Liver, Mean Value): 57.6 ng/g
- concentration at 12 h (in vivo; in vivo, Liver, Mean Value): 28.6 ng/g
- concentration at 48 h (in vivo; in vivo, Liver, Mean Value): 3.11 ng/g
- concentration at 2 h (in vivo; in vivo, Tumor): 31.1 ng/g
- concentration at 12 h (in vivo; in vivo, Tumor): 9.37 ng/g
- concentration at 48 h (in vivo; in vivo, Tumor): 6.48 ng/g
- concentration at 2 h (in vivo; in vivo, Tumor, Mean Value): 28.8 ng/g
- concentration at 5 h (in vivo; in vivo, Tumor, Mean Value): 16.6 ng/g
- concentration at 12 h (in vivo; in vivo, Tumor, Mean Value): 10.5 ng/g
- concentration at 48 h (in vivo; in vivo, Tumor, Mean Value): 6.52 ng/g
- Cmax (in vivo; in vivo, Cmax (ng/g or ng/ml)): 30.9 ng/mL
- Kp (in vivo; liver): 16.8
- Kp (in vivo; tumor): 4.77
Compound: CO[C@H]1C[C@@H]2CC[C@@H](C)[C@@](O)(O2)C(=O)C(=O)N2CCCC[C@H]2C(=O)O[C@H]([C@H](C)C[C@@H]2CC[C@@H](OC(=O)C(C)(CO)CO)[C@H](OC)C2)CC(=O)[C@H](C)/C=C(\C)[C@@H](O)[C@@H](OC)C(=O)[C@H](C)C[C@H](C)/C=C/C=C/C=C/1C [CCI-779]
- Body Weight (g) end [1]: 17.7 g
- Body Weight (g) start [1]: 19.9 g
- RTV [1]: 17 ± 7.0
- T/C (%) [1]: 69.0%
- TV (mm^3) d21 [1]: 1446 ± 630 mm^3
- TV (mm^3) d0 ([1]; baseline): 85 ± 17 mm^3

Compound: C[C@@H]1C[C@H]2[C@@H]3CCC4=CC(=O)C=C[C@]4(C)[C@@]3(F)[C@@H](O)C[C@]2(C)[C@@]1(O)C(=O)CO [Dex]
- average ear swelling degree [2]: 0.13 mm

Compound: CO[C@H]1CC2CC[C@@H](C)[C@@](O)(O2)C(=O)C(=O)N2CCCCC2C(=O)O[C@H]([C@H](C)C[C@@H]2CC[C@@H](O)[C@H](OC)C2)CC(=O)[C@H](C)/C=C(\C)[C@@H](OC(=O)OCC(O)CO)[C@@H](OC)C(=O)[C@H](C)C[C@H](C)/C=C/C=C/C=C/1C (some centres unmarked) [Y31-1]
- Body Weight (g) end [3]: 21.2 g
- Body Weight (g) start [3]: 20.2 g
- RTV [3]: 2.4 ± 1.0
- T/C (%) [3]: 55.7%
- TV (mm^3) d14 [3]: 381 ± 158 mm^3
- TV (mm^3) d0 ([3]; baseline): 164 ± 44 mm^3

- IC50 (T Cells): 5.3 µM
Compound: CO[C@H]1CC2CC[C@@H](C)[C@@](O)(O2)C(=O)C(=O)N2CCCCC2C(=O)O[C@H]([C@H](C)C[C@@H]2CC[C@@H](OC(=O)OCC3COC(C)(C)O3)[C@H](OC)C2)CC(=O)[C@H](C)/C=C(\C)[C@@H](OC(=O)OCC2COC(C)(C)O2)[C@@H](OC)C(=O)[C@H](C)C[C@H](C)/C=C/C=C/C=C/1C (some centres unmarked) [Y230]
- Safety Index CC50/IC50 ([4]; Table 10): >18.9
- CC50 ([4]; Table 10, value beyond the >100 μM bound, read-out: Cytotoxicity CC50, value in brackets): 39800 µM
- CC50 ([4]; Table 10, read-out: Cytotoxicity CC50): > 100 µM
